A short description of the data set: in vitro. Particulars: rat, gh3-tre-luc cells.

Data on 65 molecules can be found in article PMC6792352, “Limited Chemical Structural Diversity Found to Modulate Thyroid Hormone Receptor in the Tox21 Chemical Library” (Environmental Health Perspectives, 2019).

By CC50 is commonly meant the concentration giving 50% cytotoxicity.

SMILES strings stand for the structures. Structures can show the parent of a compound that is named as a salt.

Regarding `O=c1[nH]c2ccccc2c(=O)o1` [2H-3,1-Benzoxazine-2,4(1H)-dione], where the note is “AC50 (uM) modified / 1000, Tox21_110001=Tox21_201325, viability, 1 nM T3 present, 24 h”, the CC50 at 24 h is greater than 90 µM. For `Oc1ccc2ccccc2c1` [2-Naphthalenol], the CC50 at 24 h (AC50 (uM) modified / 1000) was greater than 90 µM. The molecule `c1ccc(CCNc2nc(-c3ccccc3)cs2)cc1` [Fanetizole] had a CC50 at 24 h (AC50 (uM) modified / 1000) greater than 50 µM.

Molecule `Cc1cc2cc3c(C)cc(=O)oc3c(C)c2o1` [Trioxsalen] registered a CC50 at 24 h (AC50 (uM) modified / 1000) greater than 20 µM. Still for that read-out and setting: under `CN1c2c(nc(N)[nH]c2=O)NCC1CNc1ccc(C(=O)N[C@@H](CCC(=O)O)C(=O)O)cc1` (some centres unmarked) [Disodium 5-methyltetrahydrofolate] stands greater than 50 µM. `CC(=O)C=Cc1ccccc1` [Methyl styryl ketone] registered a CC50 at 24 h (AC50 (uM) modified / 1000, Tox21_110001=Tox21_201502, viability, 1 nM T3 present, 24 h) greater than 90 µM. Under “AC50 (uM) modified / 1000”, `CN[C@H]1C[C@@H](N)[C@H](O)[C@@H](O[C@@H]2O[C@H](CO)[C@H](O)[C@@H]3OC4(O[C@H]23)O[C@H]([C@@H](N)CO)[C@H](O)[C@H](O)[C@H]4O)[C@@H]1O` (some centres unmarked) [Hygromycin B] registered a CC50 at 24 h greater than 50 µM. In turn, `C[C@]12C=CC(=O)C=C1CC[C@@H]1[C@@H]2CC[C@@]2(C)[C@H]1CC[C@]2(C)O` [Methandrostenolone] came in with a CC50 at 24 h (AC50 (uM) modified / 1000, Tox21_110001=Tox21_111647, viability, 1 nM T3 present, 24 h) greater than 50 µM. Regarding `CC(C)(C)OC(=O)N1C[C@@H](F)C[C@H]1C(=O)O` [1,2-Pyrrolidinedicarboxylicacid,4-fluoro-,1-(1,1-dimethylethyl)ester,(2S,4S)-], the CC50 at 24 h (AC50 (uM) modified / 1000) was greater than 90 µM. Same read-out and setting: under `CCCCCCCCCCCCCOS(=O)(=O)O` [Sodium tridecyl sulfate] stands greater than 90 µM; under `O=C(O)c1ccccc1C(=O)O` [Phthalic acid], greater than 90 µM. In turn, `CN(C)CCOC(c1ccc(Cl)cc1)c1ccccn1` (centres unmarked) [Carbinoxamine maleate] gave a CC50 at 24 h (AC50 (uM) modified / 1000) of 23 µM. Still for that read-out and setting: under `O=C(/C=C/c1cccc(F)c1)NC1CC1` [Cinflumide] stands greater than 50 µM. In the case of `CC/C=C\CCOC(=O)CCCCC` [(3Z)-Hex-3-en-1-yl hexanoate], the CC50 at 24 h (AC50 (uM) modified / 1000) was greater than 90 µM. Turning to `O=C[C@H](O)[C@@H](O)[C@@H](O)[C@H](O)CO` [Galactose], the CC50 at 24 h (AC50 (uM) modified / 1000) is greater than 50 µM. On the same count and under the same terms, under `C=CC(C)(CCC=C(C)C)OC(=O)c1ccccc1` (centres unmarked) [Linalyl benzoate] stands 53.7 µM. On the same count and under the same terms, under `CCOC(=O)C1=NOC(c2ccccc2)(c2ccccc2)C1` [Isoxadifen-ethyl] stands greater than 90 µM; under `C=CC[N+](C)(C)CC=C` [Diallyldimethylammonium chloride], greater than 90 µM. Same read-out and setting: under `COC1=C(C(=O)O)N2C(=O)[C@@H](NC(=O)[C@H](N)C3=CCC=CC3)[C@H]2SC1` [Cefroxadine] stands greater than 50 µM. Molecule `C1CCC2(CCCCO2)OC1` [1,7-Dioxaspiro[5.5]undecane] had a CC50 at 24 h (AC50 (uM) modified / 1000) greater than 90 µM. As to `O=c1c2ccccc2nnn1CCl` [3-(Chloromethyl)-1,2,3-benzotriazin-4(3H)-one], where the note is “AC50 (uM) modified / 1000”, the CC50 at 24 h was greater than 90 µM. `CC(C)CCCC(C)CCCC(C)CCCCC(C)CCCC(C)CCCC(C)C` (centres unmarked) [Squalane] gave a CC50 at 24 h (AC50 (uM) modified / 1000) greater than 50 µM. In turn, `ClC(Cl)(Br)Br` [Dibromodichloromethane] returned a CC50 at 24 h (AC50 (uM) modified / 1000) greater than 90 µM. With `Nc1ccccc1C(=O)OCCc1ccccc1` [Phenethyl anthranilate], the CC50 at 24 h (AC50 (uM) modified / 1000, Tox21_110001=Tox21_202175, viability, 1 nM T3 present, 24 h) was greater than 90 µM. Take `CCOc1cccc(N)c1` [3-Ethoxyaniline]: the CC50 at 24 h (AC50 (uM) modified / 1000) is greater than 90 µM. `CNC(=O)ON=CC(C)(C)S(C)(=O)=O` [Aldoxycarb] displayed a CC50 at 24 h (AC50 (uM) modified / 1000, Tox21_110001=Tox21_201338, viability, 1 nM T3 present, 24 h) greater than 90 µM. Where the note is “AC50 (uM) modified / 1000”, `O=[N+]([O-])c1cc(C(F)(F)F)c(Cl)c([N+](=O)[O-])c1Nc1ncc(C(F)(F)F)cc1Cl` [Fluazinam] gave a CC50 at 24 h of 4.25 µM. `CC(C)OC(=O)C(C(=O)OC(C)C)=C1SC=CS1` [Malotilate]: the CC50 at 24 h (AC50 (uM) modified / 1000) was greater than 50 µM. Still for that read-out and setting: under `CCCCc1c(C)nc(NCC)[nH]c1=O` [Ethirimol] stands greater than 90 µM.

Turning to `CC(C)C(=O)OCC(=O)[C@@]12O[C@H](C3CCCCC3)O[C@@H]1C[C@H]1[C@@H]3CCC4=CC(=O)C=C[C@]4(C)[C@H]3[C@@H](O)C[C@@]12C` [Ciclesonide], the CC50 at 24 h (AC50 (uM) modified / 1000) came out at 17.7 µM. The molecule `Nc1ccc(Cc2ccc(N)cc2)cc1` [4,4'-Methylenedianiline] came in with a CC50 at 24 h (AC50 (uM) modified / 1000, Tox21_110001=Tox21_201723, viability, 1 nM T3 present, 24 h) greater than 90 µM. On to `CC(=O)O[Si](C)(OC(C)=O)OC(C)=O` [Methylsilanetriyl triacetate], for which, where the note is “AC50 (uM) modified / 1000”, the CC50 at 24 h is greater than 90 µM. Regarding `COc1ccc(C[C@@H]2c3cc(OC)c(OC)cc3CC[N@+]2(C)CCC(=O)OCCCCCOC(=O)CC[N@@+]2(C)CCc3cc(OC)c(OC)cc3[C@H]2Cc2ccc(OC)c(OC)c2)cc1OC` [Atracurium besylate], the CC50 at 24 h (AC50 (uM) modified / 1000) was greater than 20 µM. In turn, `CC/C=C\CCCCCCCCCCOC(C)=O` [(Z)-11-Tetradecenyl acetate] had a CC50 at 24 h (AC50 (uM) modified / 1000) greater than 90 µM. Take `CCCCCCCCCCCCCC(=O)OCC(COP(=O)([O-])OCC[N+](C)(C)C)OC(=O)CCCCCCCCCCCCC` (racemic) [1,2-Ditetradecanoyl-rac-glycerol-3-phosphocholine]: for the setting “AC50 (uM) modified / 1000”, the CC50 at 24 h is greater than 50 µM. Take `NC(=O)/N=N/C(N)=O` [Azodicarbonamide]: under “AC50 (uM) modified / 1000”, the CC50 at 24 h is greater than 90 µM. In turn, `CC(=O)Oc1cccc(C)c1` [m-Cresyl acetate] had a CC50 at 24 h (AC50 (uM) modified / 1000) greater than 50 µM. As for `COC(=O)c1sccc1S(N)(=O)=O` [Methyl 3-sulfamoylthiophene-2-carboxylate], the CC50 at 24 h (AC50 (uM) modified / 1000) is greater than 90 µM.

With `C=C(C)C1CC=C(C)C(OC(C)=O)C1` (centres unmarked) [Carvyl acetate], for the setting “AC50 (uM) modified / 1000”, the CC50 at 24 h was greater than 90 µM.

In the case of `CNC(=O)Oc1ccccc1C1OCCO1` [Dioxacarb], for the setting “AC50 (uM) modified / 1000, Tox21_110001=Tox21_302420, viability, 1 nM T3 present, 24 h”, the CC50 at 24 h is greater than 90 µM.

For the setting “AC50 (uM) modified / 1000”, `NC(=O)OCCCc1ccccc1` [Phenprobamate] gave a CC50 at 24 h greater than 50 µM.

Regarding `CC1(C)[C@H](C(=O)O[C@H](C#N)c2cccc(Oc3ccccc3)c2)[C@@H]1C=C(Br)Br` [Deltamethrin], the CC50 at 24 h (AC50 (uM) modified / 1000) is greater than 100 µM. The same measure, in the same setting: under `CC(C)OC(=O)CCCCC(=O)OC(C)C` [Diisopropyl adipate] stands greater than 90 µM. In the case of `Nc1ccc2c(c1)Cc1ccccc1-2` [2-Aminofluorene], for the setting “AC50 (uM) modified / 1000, Tox21_110001=Tox21_202971, viability, 1 nM T3 present, 24 h”, the CC50 at 24 h was greater than 90 µM. In the case of `CCCCCCCCCCCCCCCCI` [1-iodohexadecane], the CC50 at 24 h (AC50 (uM) modified / 1000) is greater than 20 µM. Still for that read-out and setting: under `CCCCC(CC)CO` (centres unmarked) [2-Ethyl-1-hexanol] stands greater than 90 µM. Take `COP(N)(=S)Oc1ccccc1C(=O)OC(C)C` (centres unmarked) [Isocarbophos]: where the note is “AC50 (uM) modified / 1000, Tox21_110001=Tox21_301328, viability, 1 nM T3 present, 24 h”, the CC50 at 24 h was greater than 90 µM. In the case of `CC1CC(O)CC(C)(C)C1` (centres unmarked) [3,3,5-Trimethylcyclohexanol], the CC50 at 24 h (AC50 (uM) modified / 1000) was greater than 90 µM.

Turning to `CN[C@@H]1[C@@H](O)[C@@H](O[C@@H]2[C@@H](O)[C@H](O[C@H]3OC(CN)=CC[C@H]3N)[C@@H](N)C[C@H]2N)OC[C@]1(C)O` [Sisomicin sulfate], the CC50 at 24 h (AC50 (uM) modified / 1000) is greater than 20 µM. Molecule `C=C(C)c1cccc(C(=C)C)c1` [1,3-Diisopropenylbenzene] returned a CC50 at 24 h (AC50 (uM) modified / 1000) greater than 90 µM. On the same count and under the same terms, under `C[C@@H](CN1CC(=O)NC(=O)C1)N1CC(=O)NC(=O)C1` [Dexrazone] stands greater than 50 µM. With `Nc1nc2[nH]cc(CCc3ccc(C(=O)N[C@@H](CCC(=O)O)C(=O)O)cc3)c2c(=O)[nH]1` [Pemetrexed disodium], under “AC50 (uM) modified / 1000”, the CC50 at 24 h is greater than 50 µM. `C[C@@H]1O[C@@H](OC[C@H]2O[C@@H](Oc3c(-c4ccc(O)c(O)c4)oc4cc(O)cc(O)c4c3=O)[C@H](O)[C@@H](O)[C@@H]2O)[C@H](O)[C@H](O)[C@H]1O` [Rutin] displayed a CC50 at 24 h (AC50 (uM) modified / 1000) of 57.3 µM.

Turning to `CCCCCCCCCCCCCCCCCCOCCO` [Polyethylene glycol stearyl ether], the CC50 at 24 h (AC50 (uM) modified / 1000) was greater than 20 µM.

The molecule `Cc1cc2nc3c(=O)[nH]c(=O)nc-3n(C[C@H](O)[C@H](O)[C@H](O)CO)c2cc1C` [Riboflavin] showed a CC50 at 24 h (AC50 (uM) modified / 1000) greater than 90 µM. With `C1CCCCCCCCCCC1` [Cyclododecane], the CC50 at 24 h (AC50 (uM) modified / 1000) is greater than 20 µM. The molecule `COc1cc(C(=S)N2CCOCC2)ccc1O` [Vanitiolide] displayed a CC50 at 24 h (AC50 (uM) modified / 1000) greater than 50 µM. `Cc1ccccc1N` [2-Methylaniline] came in with a CC50 at 24 h (AC50 (uM) modified / 1000, Tox21_110001=Tox21_201256, viability, 1 nM T3 present, 24 h) greater than 90 µM. For `Cc1c(O)cc2c(c1C)O[C@](C)(CCC[C@H](C)CCC[C@H](C)CCCC(C)C)CC2` [(+)-gamma-Tocopherol], the CC50 at 24 h (AC50 (uM) modified / 1000) was greater than 50 µM. Consider `CCCCC(CC)COC(=O)c1c(Br)c(Br)c(Br)c(Br)c1C(=O)OCC(CC)CCCC` (centres unmarked) [Bis(2-ethylhexyl) tetrabromophthalate], for which the CC50 at 24 h (AC50 (uM) modified / 1000, Tox21_110001=Tox21_302404, viability, 1 nM T3 present, 24 h) is greater than 70 µM. For the setting “AC50 (uM) modified / 1000”, `Cc1cc(SC2=C(O)C[C@@](CCc3ccc(N)cc3)(C(C)C)OC2=O)c(C(C)(C)C)cc1CO` [CI-1029] registered a CC50 at 24 h greater than 90 µM.

On to `CC1=C(/C=C/C(C)=C/C=C/C(C)=C/C=C/C=C(C)/C=C/C=C(C)/C=C/C2=C(C)C(=O)CCC2(C)C)C(C)(C)CCC1=O` [Canthaxanthin], for which the 50% cytotoxic concentration (CC50) at 24 h (AC50 (uM) modified / 1000) is greater than 50 µM. As for `COC1=CC(=O)O[C@@H](/C=C/c2ccccc2)C1` [Kavain], the CC50 at 24 h (AC50 (uM) modified / 1000, Tox21_110001=Tox21_200907, viability, 1 nM T3 present, 24 h) is greater than 90 µM. With `CCN1CCN(C(=O)N[C@@H](C(=O)N[C@@H]2C(=O)N3[C@@H]2SC(C)(C)[C@@H]3C(=O)O)c2ccccc2)C(=O)C1=O` [Piperacillin sodium salt], the CC50 at 24 h (AC50 (uM) modified / 1000) is greater than 50 µM. On the same count and under the same terms, under `O=S(=O)(O)c1cccc2c(S(=O)(=O)O)cccc12` [1,5-Naphthalenedisulfonic acid, disodium salt hydrate] stands greater than 90 µM.
